Here are results for 1 compound from article PMC7179259, “Safety, Tolerability, Pharmacokinetics, and Antimalarial Activity of the Novel Plasmodium Phosphatidylinositol 4-Kinase Inhibitor MMV390048 in Healthy Volunteers” (Antimicrobial Agents and Chemotherapy, 2020).

Each structure is given as a SMILES string.

Data set [1] is described as follows: Stability in human plasma and whole blood (bioanalytical validation). It is filed as in vitro ADME. The source says: page 28: Determination of MMV390048 from 50 µ L human plasma by LC -MS/MS A method was validated for the quantification of MMV390048 in human plasma, and consisted of a protein precipitation extraction, followed by high performance liquid chromatography with MS/MS detection. MMV390048- d3 was used as the internal standard. Analyte mean extraction yield was approximately 106.5 % (CV% = 6.2). The extraction procedure was followed by liquid chromatographic separation using a Waters Atlantis T3 3 μm, 100 x 2.1 mm analytical column. An isocratic mobile phase containing water:acetonitrile (25:75 [v/v]) was used at a flow-rate of 300 μL/min. The retention times for MMV390048 and MMV390048- d3 were 1.16 min and 1.16 min, respectively. An AB Sciex API 4000 mass spectrometer at unit resolution in the multiple reaction monitoring mode was used to monitor the transition of the protonated precursor ions, 394.145 m/z and 397.148 m/z, to the product ions, 297.0 m/z and 297.0 m/z, for MMV390048 and the internal standard, respectively. Electro -spray ionisation was used for ion production. Accuracy and precision were assessed over three consecutive, independent runs. The calibration curve fits a quadratic (weighted by 1/x) regressions for MMV390048 over the ranges 0.500 –2000 ng/mL, based on peak area ratios. The assay was successfully cross- validated on a second/back- up API 4000 instrument. […] Stock solutions of MMV390048 in dimethylsulfoxide was stable for 67 days when stored at -80°C and for 24 hours when stored at room temperature, 4°C and - 20°C. […] Samples with haemolysis greater than 1% were assayed in duplicate to confirm results.

The subject of the next data set is healthy subjects. Briefly: Formulation optimization study: safety. It is filed as in vivo, human. The settings on record: both tablet formulations. As to the method: The third study was a formulation optimization study to test two MMV390048 tablet formulations (tartaric acid and Syloid). The formulation optimization study was conducted at Richmond Pharmacology Ltd. (London, United Kingdom) from 17 September to 28 October 2015. This was a phase 1, open-label, single-dose, parallel-group, two-cohort design study.
(iii) Formulation optimization study. Subjects received one of two tablet formulations (formulation A, tartaric acid tablets; formulation B, Syloid tablets; manufactured by Quotient Clinical, United Kingdom) on day 1, after an ≥8-h fasting period, at a dose of 40 mg with 240 ml of water. Subjects were followed up until day 29.
(§1) Safety endpoints were the incidence, severity, and relationship to the investigational product (and inoculum for the IBSM study) of observed and self-reported adverse events (AEs), and changes from baseline in physical examination, vital signs, standard electrocardiograms (ECGs), continuous ECGs (first-in-human study only), and laboratory evaluation (hematology, coagulation parameters, hemolysis panel, clinical chemistry, and urinalysis) findings. […] AE severity was evaluated according to the Common Terminology Criteria for Adverse Events version 4.03 ([18]) and the World Health Organization recommendations for grading acute and subacute toxic effects ([19]).

For the next data set, the system named is P. falciparum. Also noted: method as in PMID 28446690. The settings on record: humanized SCID mice infected with P. falciparum; cited from earlier work.
For the next data set, the system named is P. falciparum 3D7. Briefly: Induced blood-stage malaria (IBSM) study: antimalarial activity (parasitemia by qPCR). The settings on record: 20 mg single dose. It is filed as in vivo, Plasmodium falciparum. As to the method:
(§2) (ii) IBSM study. The dose of MMV390048 chosen (20 mg) was based on the pharmacokinetic, safety, and tolerability data available from the first-in-human study at the time the IBSM study commenced (when 5- and 20-mg-dose cohorts of the first-in-human study had been completed). This dose was below the estimated single dose required to achieve complete cure calculated from preclinical studies (80 to 100 mg) since recrudescence allows for characterization of the pharmacokinetic/pharmacodynamic relationship between MMV390048 and P. falciparum parasitemia. Subjects were inoculated intravenously on day 0 with erythrocytes infected with ∼1,800 viable chloroquine-sensitive P. falciparum 3D7 parasites ([17]). Fasted (≥8 h) subjects were dosed with MMV390048 when they reached the parasitemia threshold for treatment (∼1,000 parasites ml^−1) and were followed up until the end-of-study visit on day 28.
Parasitemia was monitored by collecting blood samples and performing quantitative PCR (qPCR) targeting the gene encoding P. falciparum 18S rRNA ([20]). Blood samples were collected daily from day 4 until parasites were detectable; twice daily until MMV390048 dosing; before MMV390048 dosing and 2, 4, 8, 12, 16, 20, 24, 30, 36, 48, 60, and 72 h after MMV390048 dosing; twice daily until parasitemia was not detected over a 48-h period; 3 times per week until artemether-lumefantrine treatment; and then at the end of the study (day 28).

The subject of data set [2] is healthy subjects inoculated with blood-stage P. falciparum. Nature of the data set: Induced blood-stage malaria (IBSM) study: safety. Format: in vivo, human. As to the method:
The second study was conducted at Q-Pharm (Brisbane, Australia) from 27 October 2014 to 19 December 2014. This was an IBSM, phase 1b, single-center, open-label study, in which a single dose of MMV390048 was administered to subjects previously inoculated with blood-stage P. falciparum. This study was planned to consist of two dose cohorts; however, a second cohort was not enrolled due to the high variability in pharmacokinetic profiles observed in the first cohort and in the first-in-human study (see Results). The IBSM study commenced when the first two dose cohorts of the first-in-human study had been completed. MMV390048 was administered in the first-in-human and IBSM studies in a powder-in-bottle formulation.
as §2, §1

On to `CS(=O)(=O)c1ccc(-c2cnc(N)c(-c3ccc(C(F)(F)F)nc3)c2)cc1` [MMV390048], for which the “stable in human plasma when subjected to freeze-thaw cycles” value in data set [1] (freeze-thaw cycles) is 3. Besides, the “stable in whole blood for up to” value in data set [1] (on ice) amounted to 1 h. In addition, the “stable in human plasma for” value in data set [1] (room temperature) is 6 h. The “stable in human plasma for up to” value in data set [1] (stored at approximately -80°C) is on record as 79 days. Also, in the data set on healthy subjects (18 subjects), the “total AEs reported” value is recorded as 11. Also, in the data set with healthy subjects (of 18 subjects), the “subjects with AEs” value turned out to be 7. Also, the “effective concentration to achieve 90% of the maximal kill rate (EC90)” value in the data set on P. falciparum is 0.16 µg/mL. Moreover, in the data set with P. falciparum 3D7 (n = 2 subjects (highest exposure)), the “time to recrudescence after MMV390048 dosing” value is recorded as 7 days. Besides, in the data set with P. falciparum 3D7 (n = 4 subjects), the “time to recrudescence after MMV390048 dosing” value was 2 days. In addition, in the data set on P. falciparum 3D7 (n = 6), the parasitemia following administration entry is “decreased initially in all subjects” and the recrudescence entry is “observed in all subjects”. Moreover, the “AEs deemed related to malaria” value in data set [2] (20 mg) was 81.3%. For the same compound, in data set [2] (20 mg (n = 6)), the “No. (%) of subjects with adverse events: All AEs, Treatment related” value was determined as 0; the “No. (%) of subjects with adverse events: Grade 2 AEs” value is given as 3 (50); the “No. (%) of subjects with adverse events: Grade 2 AEs, Treatment related” value is on record as 0; the “No. (%) of subjects with adverse events: Grade 3 AEs” value was 0. Besides, in data set [2] (20 mg (n = 6)), the “No. (%) of subjects with adverse events: SAEs” value was determined as 0; the “No. of adverse events: All AEs” value came to 32; the “No. of adverse events: Grade 2 AEs” value was found to be 9; the “No. of adverse events: Grade 2 AEs, Treatment related” value was 0. In data set [2] (20 mg (n = 6)), the “No. of adverse events: Grade 3 AEs” value is listed as 0 and the “No. of adverse events: SAEs” value amounted to 0. In addition, the “AEs mild in severity” value in data set [2] (20 mg, 23/32 AEs) amounted to 71.9%. Moreover, the “headache (most common AE), cases” value in data set [2] (20 mg, in 4 subjects) was 7.
